Where two headings read alike, the source gives them in different places. Values belong to the compound of their own block, whether it stands above or below them.
Assays:
SU-DHL-6 cells = assay: SU-DHL-6 cell proliferation test; format: cell-based, human; conditions: incubated for 14 days
Method: SU-DHL-6 cells are human B-cell lymphoma cell lines purchased from ATCC and cultured under the following conditions: RPMI-1640+10% FBS+1% double antibody in a 37° C., 5% CO2 incubator. The cells were plated in a 12-well plate, with a cell concentration of 1×10^5 cells/mL. After the cells were plated, the compounds at different concentrations were added and cultured in a 37° C., 5% CO2 incubator. The cells were counted every 3-4 days (Countstar automated cell counter), centrifuged to remove the supernatant, re-diluted to 1×10^5 cells/mL and plated, and then the compounds at different concentrations were further added. After the mixture was incubated for 14 days and the cells were counted, the test was terminated, and the IC50 values were calculated by using the Origen9.2 software.

EZH2 = EZH2 (Homo sapiens (Human), UniProt Q15910); assay: Test method for EZH2 enzyme activity; format: biochemical; conditions: H3K27(21-44) and [3H]-SAM
EZH2, sequence (Q15910 other isoform, or with tags, fused parts or gaps isoform Q15910-2): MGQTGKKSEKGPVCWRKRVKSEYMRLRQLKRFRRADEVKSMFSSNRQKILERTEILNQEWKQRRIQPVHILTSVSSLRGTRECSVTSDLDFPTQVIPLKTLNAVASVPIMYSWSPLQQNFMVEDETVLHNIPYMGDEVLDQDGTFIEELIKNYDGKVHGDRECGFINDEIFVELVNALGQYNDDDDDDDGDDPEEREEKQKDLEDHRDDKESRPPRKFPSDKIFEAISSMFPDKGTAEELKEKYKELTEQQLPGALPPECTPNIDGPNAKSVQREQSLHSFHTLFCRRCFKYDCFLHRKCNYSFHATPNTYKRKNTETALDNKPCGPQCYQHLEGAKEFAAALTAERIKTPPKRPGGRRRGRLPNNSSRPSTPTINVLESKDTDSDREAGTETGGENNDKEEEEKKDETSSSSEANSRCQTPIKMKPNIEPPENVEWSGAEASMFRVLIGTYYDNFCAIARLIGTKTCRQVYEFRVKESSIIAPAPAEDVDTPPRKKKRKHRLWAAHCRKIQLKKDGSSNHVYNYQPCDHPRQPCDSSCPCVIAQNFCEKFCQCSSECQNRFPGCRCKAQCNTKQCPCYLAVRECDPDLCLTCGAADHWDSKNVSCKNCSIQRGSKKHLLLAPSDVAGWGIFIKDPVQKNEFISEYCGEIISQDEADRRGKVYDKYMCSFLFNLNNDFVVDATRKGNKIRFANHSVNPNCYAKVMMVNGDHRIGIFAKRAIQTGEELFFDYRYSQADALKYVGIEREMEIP
EZH2, sequence (O75530 2-441 partner): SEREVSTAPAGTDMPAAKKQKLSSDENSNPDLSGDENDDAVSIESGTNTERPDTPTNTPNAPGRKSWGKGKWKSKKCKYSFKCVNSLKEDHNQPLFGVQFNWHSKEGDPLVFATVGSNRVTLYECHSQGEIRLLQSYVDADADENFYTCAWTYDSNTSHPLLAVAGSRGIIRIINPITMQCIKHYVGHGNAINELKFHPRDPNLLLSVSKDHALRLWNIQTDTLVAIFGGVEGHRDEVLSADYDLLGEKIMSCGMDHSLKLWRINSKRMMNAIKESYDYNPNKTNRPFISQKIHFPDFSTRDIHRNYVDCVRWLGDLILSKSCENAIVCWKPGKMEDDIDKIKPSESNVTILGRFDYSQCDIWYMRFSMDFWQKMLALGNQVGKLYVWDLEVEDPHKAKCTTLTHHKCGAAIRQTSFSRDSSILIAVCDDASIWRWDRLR
EZH2, sequence (Q15022 2-739 partner): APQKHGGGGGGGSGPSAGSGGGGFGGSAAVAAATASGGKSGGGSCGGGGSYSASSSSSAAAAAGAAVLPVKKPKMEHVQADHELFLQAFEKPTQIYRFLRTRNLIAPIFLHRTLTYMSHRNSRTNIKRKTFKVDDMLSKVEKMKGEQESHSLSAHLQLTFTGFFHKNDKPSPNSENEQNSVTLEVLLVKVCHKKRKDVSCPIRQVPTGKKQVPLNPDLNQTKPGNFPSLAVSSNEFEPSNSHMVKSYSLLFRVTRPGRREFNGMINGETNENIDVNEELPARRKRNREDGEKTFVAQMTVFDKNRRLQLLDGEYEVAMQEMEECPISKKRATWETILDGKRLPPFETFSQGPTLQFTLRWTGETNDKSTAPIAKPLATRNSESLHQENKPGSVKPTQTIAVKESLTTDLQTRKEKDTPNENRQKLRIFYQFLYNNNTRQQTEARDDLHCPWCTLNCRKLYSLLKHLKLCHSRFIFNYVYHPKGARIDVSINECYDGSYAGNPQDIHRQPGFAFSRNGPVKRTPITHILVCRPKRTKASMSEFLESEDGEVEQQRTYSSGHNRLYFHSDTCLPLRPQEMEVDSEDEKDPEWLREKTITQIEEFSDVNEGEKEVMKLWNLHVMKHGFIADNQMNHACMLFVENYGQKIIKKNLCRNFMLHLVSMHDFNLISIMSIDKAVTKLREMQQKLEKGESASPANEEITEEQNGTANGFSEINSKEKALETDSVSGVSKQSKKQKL
EZH2, sequence (Q09028 2-425 partner): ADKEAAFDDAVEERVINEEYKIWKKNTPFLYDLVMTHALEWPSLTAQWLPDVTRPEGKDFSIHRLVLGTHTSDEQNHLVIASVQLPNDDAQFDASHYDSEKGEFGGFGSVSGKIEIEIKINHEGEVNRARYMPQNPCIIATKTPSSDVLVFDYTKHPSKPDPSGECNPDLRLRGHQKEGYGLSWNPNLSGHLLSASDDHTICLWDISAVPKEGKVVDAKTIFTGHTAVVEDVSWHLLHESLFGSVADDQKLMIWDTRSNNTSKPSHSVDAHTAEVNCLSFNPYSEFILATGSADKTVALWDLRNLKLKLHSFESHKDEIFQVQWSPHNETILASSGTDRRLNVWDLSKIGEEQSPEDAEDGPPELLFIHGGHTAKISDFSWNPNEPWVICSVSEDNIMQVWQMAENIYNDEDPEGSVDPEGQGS
EZH2, sequence (Q6ZN18 whole entry partner): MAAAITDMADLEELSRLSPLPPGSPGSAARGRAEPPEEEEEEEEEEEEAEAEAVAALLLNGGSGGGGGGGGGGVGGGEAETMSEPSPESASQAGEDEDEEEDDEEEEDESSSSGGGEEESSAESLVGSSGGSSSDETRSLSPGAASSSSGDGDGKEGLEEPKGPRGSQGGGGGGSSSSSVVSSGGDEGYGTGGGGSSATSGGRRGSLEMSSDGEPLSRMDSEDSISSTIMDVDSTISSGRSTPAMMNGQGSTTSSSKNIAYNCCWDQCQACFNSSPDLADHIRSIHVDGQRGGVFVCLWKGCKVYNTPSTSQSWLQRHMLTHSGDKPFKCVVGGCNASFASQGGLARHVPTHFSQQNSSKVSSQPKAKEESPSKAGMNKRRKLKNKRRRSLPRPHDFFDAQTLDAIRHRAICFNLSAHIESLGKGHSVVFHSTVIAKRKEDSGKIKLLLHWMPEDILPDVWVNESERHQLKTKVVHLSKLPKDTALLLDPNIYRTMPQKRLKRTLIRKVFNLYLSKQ
Method: The compounds were dissolved in DMSO, formulated into 10 mM solutions and serially diluted with DMSO to obtain 100-fold the final concentration. 200 nL of the solutions of the compounds was transferred to a 384-well plate (Perkin Elmer, Cat. No. 6007299) by using Echo550. EZH2 (BPS, Cat. No. 51004) was diluted with 1×assay buffer (50 mM Tris-HCl 9.0, 0.01% Tween-20, 1 mM DTT) to 2-fold the final concentration (EZH2: 3 nM). A mixed solution of H3K27(21-44) and [3H]-SAM (PerkinElmer, Lot. No. 2146246) (H3K27(21-44): 200 nM, [3H]-SAM: 100 nM) was formulated. The EZH2 diluted solution was taken and added to the 384-well plate at 10 μL/well (10 μL of 1×assay buffer was added in the control group). The plate was sealed and then incubated at room temperature for 15 minutes. 10 μL of the mixed solution of H3K27 (21-44) and [3H]-SAM was added to each well. The plate was sealed and then incubated at room temperature for 60 minutes. 50 μM of SAM (Sigma, Cat. No. A7007) was formulated at low temperature and added to the 384-well plate at 10 μL/well. The sample was taken at 25 μL/well, transferred to a flashplate and incubated at room temperature for at least 1 hour. The flashplate was washed 3 times with a plate washing liquid (dH2O+0.1% Tween-20) and read by using Microbeta. The inhibition rate was calculated in Excel according to: inhibition rate (%)=(maximum valuepositive control−detection signal value)/(maximum valuepositive control−minimum valuenegative control)*100, and IC50 values were fitted by using XL-Fit.

[1] = Pharmacokinetic experiment in mice (intravenous 5 mg/kg or intragastric 30 mg/kg); format: in vivo
Method: The administration was performed according to table 5.
The concentrations of the compounds in EDTA-K2 anticoagulant plasma were determined by the LC-MS/MS method. The linear range of the standard curve of the compounds is 2-2000 ng/mL. After subjected to precipitating proteins with acetonitrile, the samples were analyzed by LC-MS/MS. The standard curve was subjected to a regression calculation using the weighted least square method (W=1/X^2), and quantified by calculating the ratio of test compound peak area to internal standard peak area.
• (1) except to the blank sample, 400 μL of internal standard working solution (Verapamil internal standard concentration in precipitant acetonitrile is 10.0 ng/mL) was added to a 1.5 mL centrifuge tube containing 30 μL of standard curve samples and quality control samples; • 200 μL of internal standard working solution (Verapamil internal standard concentration in precipitant acetonitrile is 10.0 ng/mL) was added to a 1.5 mL centrifuge tube containing 15 μL of unknown samples; • and 400 μL of acetonitrile was added to the blank sample; • (2) the mixture was mixed evenly for about 1 min in a vortex mixer; • (3) centrifugation was carried out at 10000 rpm at 4C for 10 mi; • (4) 175 μL of the supernatant was transferred to a new 96-well polypropylene plate, and then the plate was sealed and placed in a 10° C. sample tray for injection.

[2] = ICR mice, IV 5 mg/kg, listed as Compound 44, Isomer 2
[3] = ICR mice, PO 30 mg/kg, listed as Compound 44, Isomer 2
[4] = ICR mice, PO 30 mg/kg, listed as Compound 53, Isomer 1
[5] = ICR mice, IV 5 mg/kg, listed as Compound 53, Isomer 2
[6] = ICR mice, PO 30 mg/kg, listed as Compound 53, Isomer 2

SMILES: CNC(=O)N1CC2CCC(C1)C2[C@]1(C)Oc2c(Cl)cc(C(=O)NCc3c(SC)cc(C)[nH]c3=O)c(C)c2O1 (mixture of isomers) [Compound 36, 8-(7-chloro-2,4-dimethyl-5-(((6-methyl-4-(methylthio)-2-oxo-1,2-dihydropyridin-3-yl)methyl)carbamoyl)benzo[d][1,3]dioxol-2-yl)-N-methyl-3-azabicyclo[3.2.1]octane-3-carboxamide]
IC50 (SU-DHL-6 cells; Homo sapiens, SU-DHL-6, 336 h): 8.96 nM
IC50 (EZH2): 0.55 nM

SMILES: CSc1cc(C)[nH]c(=O)c1CNC(=O)c1cc(Cl)c2c(c1C)OC(C)(C1CCC(N3CC(N(C)C)C3)CC1)O2 (single isomer, unassigned) [Compound 1, isomer 1, 7-chloro-2-(4-(3-(dimethylamino)azetidin-1-yl)cyclohexyl)-2,4-dimethyl-N-((6-methyl-4-(methylthio)-2-oxo-1,2-dihydropyridin-3-yl)methyl)benzo[d][1,3]dioxole-5-carboxamide]
IC50 (SU-DHL-6 cells; Homo sapiens, SU-DHL-6, 336 h): 13.1 nM
IC50 (EZH2): 0.67 nM

SMILES: CSc1cc(C)[nH]c(=O)c1CNC(=O)c1cc(Cl)c2c(c1C)OC(C)([C@H]1CC[C@@H](NC3CC(F)(F)C3)CC1)O2 (single isomer, unassigned) [Compound 4, isomer 1, 7-chloro-2-(4-((3,3-difluorocyclobutyl)amino)cyclohexyl)-2,4-dimethyl-N-((6-methyl-4-(methylthio)-2-oxo-1,2-dihydropyridin-3-yl)methyl)benzo[d][1,3]dioxole-5-carboxamide]
IC50 (SU-DHL-6 cells; Homo sapiens, SU-DHL-6, 336 h): 10.2 nM
IC50 (EZH2): 0.46 nM

SMILES: CSc1cc(C)[nH]c(=O)c1CNC(=O)c1cc(Cl)c2c(c1C)OC(C)([C@H]1CC[C@@H](NC3CC(F)(F)C3)CC1)O2 (single isomer, unassigned) [Compound 4, isomer 2, 7-chloro-2-(4-((3,3-difluorocyclobutyl)amino)cyclohexyl)-2,4-dimethyl-N-((6-methyl-4-(methylthio)-2-oxo-1,2-dihydropyridin-3-yl)methyl)benzo[d][1,3]dioxole-5-carboxamide]
IC50 (SU-DHL-6 cells): 9.79 nM
IC50 (EZH2): 0.56 nM

SMILES: CSc1cc(C)[nH]c(=O)c1CNC(=O)c1cc(Cl)c2c(c1C)OC(C)([C@H]1CC[C@@H](N[C@H]3C[C@H](F)C3)CC1)O2 (single isomer, unassigned) [Compound 34, isomer 2, 7-chloro-2-(4-((trans-3-fluorocyclobutyl)amino)cyclohexyl)-2,4-dimethyl-N-((6-methyl-4-(methylthio)-2-oxo-1,2-dihydropyridin-3-yl)methyl)benzo[d][1,3]dioxole-5-carboxamide]
IC50 (SU-DHL-6 cells): 27.1 nM
IC50 (EZH2): 0.57 nM

Other lines, results leading:

IC50 (SU-DHL-6 cells): 28.2 nM
IC50 (EZH2): 0.42 nM
SMILES: CSc1cc(C)[nH]c(=O)c1CNC(=O)c1cc(Cl)c2c(c1C)OC(C)([C@H]1CC[C@@H](c3ccccn3)CC1)O2 (single isomer, unassigned) [Compound 39, isomer 1, 7-chloro-2,4-dimethyl-N-((6-methyl-4-(methylthio)-2-oxo-1,2-dihydropyridin-3-yl)methyl)-2-(4-(pyridin-2-yl)cyclohexyl)benzo[d][1,3]dioxole-5-carboxamide]

IC50 (SU-DHL-6 cells): 63.2 nM
IC50 (EZH2): 0.58 nM
SMILES: CSc1cc(C)[nH]c(=O)c1CNC(=O)c1cc(Cl)c2c(c1C)OC(C)([C@H]1CC[C@@H](c3ccccn3)CC1)O2 (single isomer, unassigned) [Compound 39, isomer 2, 7-chloro-2,4-dimethyl-N-((6-methyl-4-(methylthio)-2-oxo-1,2-dihydropyridin-3-yl)methyl)-2-(4-(pyridin-2-yl)cyclohexyl)benzo[d][1,3]dioxole-5-carboxamide]

IC50 (SU-DHL-6 cells; Homo sapiens, SU-DHL-6, 336 h): 35.3 nM
IC50 (EZH2): 0.52 nM
SMILES: CSc1cc(C)[nH]c(=O)c1CNC(=O)c1cc(Cl)c2c(c1C)OC(C)([C@H]1CC[C@H](N[C@H]3C[C@@H](F)C3)CC1)O2 (single isomer, unassigned) [Compound 41, isomer 1, 7-chloro-2-(4-((cis-3-fluorocyclobutyl)amino)cyclohexyl)-2,4-dimethyl-N-((6-methyl-4-(methylthio)-2-oxo-1,2-dihydropyridin-3-yl)methyl)benzo[d][1,3]dioxole-5-carboxamide]

AUC [1, 2]: 0.713 µg·h/mL
C0 [1, 2]: 2.482 µg/mL
T1/2 [1, 2]: 2.33 h
F % ([1]; ICR mice, PO 30 mg/kg vs IV 5 mg/kg, listed as Compound 44, Isomer 2): 27.4%
AUC [1, 3]: 0.917 µg·h/mL
Cmax [1, 3]: 0.463 µg/mL
T1/2 [1, 3]: 1.81 h
Tmax ([1]; male, ICR, mouse, plasma, po, 30 mg/kg, PO 30 mg/kg, read-out: Tmax): 1 h
IC50 (EZH2): 0.51 nM
SMILES: [2H]C([2H])(NC(=O)c1cc(Cl)c2c(c1C)OC(C)([C@H]1CC[C@@H](NC3CC(F)(F)C3)CC1)O2)c1c(SC)cc(C)[nH]c1=O (single isomer, unassigned) [Compound 44, isomer 2, 7-chloro-2-(4-((3,3-difluorocyclobutyl)amino)cyclohexyl)-2,4-dimethyl-N-((6-methyl-4-(methylthio)-2-oxo-1,2-dihydropyridin-3-yl)methyl-d2)benzo[d][1,3]dioxole-5-carboxamide]

Cmax [1, 4]: 1.025 µg/mL
T1/2 [1, 4]: 1.10 h
Tmax [1, 4]: 0.500 h
half-life ([1]; male, ICR, mouse, plasma, iv, 5 mg/kg, IV 5 mg/kg): 1.21 h
AUC ([1]; male, ICR, mouse, plasma, iv, 5 mg/kg, IV 5 mg/kg, read-out: AUC): 0.703 µg·h/mL
C0 ([1]; male, ICR, mouse, plasma, iv, 5 mg/kg, IV 5 mg/kg, read-out: C0): 2.37 µg/mL
bioavailability ([1]; male, ICR, mouse, plasma, po, 30 mg/kg, PO 30 mg/kg vs IV 5 mg/kg): 47.9%
AUC ([1]; male, ICR, mouse, plasma, po, 30 mg/kg, PO 30 mg/kg, read-out: AUC): 2.02 µg·h/mL
IC50 (EZH2): 0.33 nM
SMILES: [2H]C([2H])(NC(=O)c1cc(Cl)c2c(c1C)OC(C)(C1CCC(N[C@H]3C[C@H](F)C3)CC1)O2)c1c(SC)cc(C)[nH]c1=O (single isomer, unassigned) [Compound 53, isomer 1, 7-chloro-2-(4-((trans-3-fluorocyclobutyl)amino)cyclohexyl)-2,4-dimethyl-N-((6-methyl-4-(methylthio)-2-oxo-1,2-dihydropyridin-3-yl)methyl-d2)benzo[d][1,3]dioxole-5-carboxamide]

AUC [1, 5]: 0.954 µg·h/mL
C0 [1, 5]: 2.665 µg/mL
T1/2 [1, 5]: 1.87 h
F % ([1]; ICR mice, PO 30 mg/kg vs IV 5 mg/kg, listed as Compound 53, Isomer 2): 38.4%
AUC [1, 6]: 2.201 µg·h/mL
Cmax [1, 6]: 0.476 µg/mL
T1/2 [1, 6]: 4.51 h
Tmax [1, 6]: 4.00 h
SMILES: [2H]C([2H])(NC(=O)c1cc(Cl)c2c(c1C)OC(C)(C1CCC(N[C@H]3C[C@H](F)C3)CC1)O2)c1c(SC)cc(C)[nH]c1=O (single isomer, unassigned) [Compound 53, isomer 2, 7-chloro-2-(4-((trans-3-fluorocyclobutyl)amino)cyclohexyl)-2,4-dimethyl-N-((6-methyl-4-(methylthio)-2-oxo-1,2-dihydropyridin-3-yl)methyl-d2)benzo[d][1,3]dioxole-5-carboxamide]

— US20230365541A1, “INHIBITOR OF ENHANCER OF ZESTE HOMOLOGUE 2, AND USE THEREOF” (HAISCO PHARMACEUTICALS PTE. LTD., priority 2020, published 2023)
